What all share (experiment): AK assay 384-well format, Prestwick library screening
One assay deals with E. faecium. It counts as cell-based, Enterococcus faecium. The note with it: 50 μM final drug concentration; for fold induction at 50 µM: Enterococcus faecium, 3 h.
In assay [1] the test system is S. aureus strain USA300-0114. It counts as cell-based, Staphylococcus aureus. The conditions noted are these: 50 μM final drug concentration; for fold induction at 50 µM: Staphylococcus aureus, USA300, 3 h.
For another assay, the system named is K. pneumoniae. Type of assay: cell-based, Klebsiella pneumoniae. The conditions noted are these: 50 μM final drug concentration; for fold induction at 50 µM: Klebsiella pneumoniae, 3 h.
The test system of assay [2] is A. baumannii strain 98-37-09. It counts as cell-based, Acinetobacter baumannii. The note with it: 50 μM final drug concentration; for fold induction at 50 µM: Acinetobacter baumannii, 983709, 3 h.
The test system of another assay is P. aeruginosa. Type of assay: cell-based, Pseudomonas aeruginosa. The note with it: 50 μM final drug concentration; for fold induction at 50 µM: Pseudomonas aeruginosa, 3 h.
For another assay, the system named is E. cloacae. It counts as cell-based, Enterobacter cloacae. The note with it: 50 μM final drug concentration; for fold induction at 50 µM: Enterobacter cloacae, 3 h.
For another assay, the system named is E. coli. It counts as cell-based, Escherichia coli. The note with it: 50 μM final drug concentration; for fold induction at 50 µM: Escherichia coli, 3 h.
The mark [3] stands for this setting: cutoff for positive-scoring molecules 3-fold increase, read-out: AK-based Prestwick Library Screening Results, E. faecium (fold increase in extracellular AK activity).
Where [4] appears, read: cutoff for positive-scoring molecules 3-fold increase, read-out: AK-based Prestwick Library Screening Results, S. aureus (fold increase in extracellular AK activity).
Where [5] appears, read: cutoff for positive-scoring molecules 3-fold increase, read-out: AK-based Prestwick Library Screening Results, K. pneumoniae (fold increase in extracellular AK activity).
Where [6] appears, read: cutoff for positive-scoring molecules 3-fold increase, read-out: AK-based Prestwick Library Screening Results, A. baumannii (fold increase in extracellular AK activity).
[7] abbreviates: cutoff for positive-scoring molecules 3-fold increase, read-out: AK-based Prestwick Library Screening Results, P. aeruginosa (fold increase in extracellular AK activity).
Where [8] appears, read: cutoff for positive-scoring molecules 3-fold increase, read-out: AK-based Prestwick Library Screening Results, E. cloacae (fold increase in extracellular AK activity).
Setting [9] is: cutoff for positive-scoring molecules 3-fold increase, read-out: AK-based Prestwick Library Screening Results, E. coli (fold increase in extracellular AK activity).
Where [10] appears, read: planktonic, cutoff for positive 3-fold increase, read-out: AK-based Prestwick Library Screening Results, E. faecium (fold increase in extracellular AK activity).
[11] abbreviates: planktonic, cutoff for positive 3-fold increase, read-out: AK-based Prestwick Library Screening Results, S. aureus (fold increase in extracellular AK activity).
[12] abbreviates: planktonic, cutoff for positive 3-fold increase, read-out: AK-based Prestwick Library Screening Results, K. pneumoniae (fold increase in extracellular AK activity).
Setting [13] is: planktonic, cutoff for positive 3-fold increase, read-out: AK-based Prestwick Library Screening Results, A. baumannii (fold increase in extracellular AK activity).
Setting [14] is: planktonic, cutoff for positive 3-fold increase, read-out: AK-based Prestwick Library Screening Results, P. aeruginosa (fold increase in extracellular AK activity).
Where [15] appears, read: planktonic, cutoff for positive 3-fold increase, read-out: AK-based Prestwick Library Screening Results, E. cloacae (fold increase in extracellular AK activity).
The mark [16] stands for this setting: planktonic, cutoff for positive 3-fold increase, read-out: AK-based Prestwick Library Screening Results, E. coli (fold increase in extracellular AK activity).
Where [17] appears, read: 384-well format, cutoff for positive-scoring molecules 3-fold increase.

Data on twelve compounds can be found in patent US10004701B2, “Methods and compositions for treating infection” (UNIVERSITY OF ROCHESTER, priority 2012, dated 2018).

Counter-ions that a name gives are not always drawn. Like-named read-outs stand apart in the source and are kept apart here.

Regarding `CC(=O)OCC(=O)[C@@]12OC(C)(C)O[C@@H]1C[C@H]1[C@@H]3C[C@H](F)C4=CC(=O)C=C[C@]4(C)[C@@]3(F)[C@@H](O)C[C@@]12C` [Fluocinonide], the fold induction at 50 µM with E. faecium (setting [3]) was found to be 1; in assay [1] (setting [4]), 1.1; in the assay with K. pneumoniae (setting [5]), 0.9; in assay [2] (setting [6]), 0.9; in the assay on P. aeruginosa (setting [7]), 1.2; in the assay on E. cloacae (setting [8]) it was 1.7. In addition, the fold induction at 50 µM with E. coli (setting [9]) turned out to be 1.
Regarding `CC1(C)S[C@@H]2[C@H](NC(=O)[C@H](C(=O)O)c3ccsc3)C(=O)N2[C@H]1C(=O)O` [Ticarcillin sodium], the fold induction at 50 µM amounted to 1.2 in the assay on E. faecium (planktonic E. faecium, positive cutoff 3-fold increase, read-out: AK-based Prestwick library screening result, E. faecium (fold increase in extracellular AK activity)); 0.7 in assay [1] (planktonic S. aureus, positive cutoff 3-fold increase, read-out: AK-based Prestwick library screening result, S. aureus (fold increase in extracellular AK activity)); 0.7 in the assay on K. pneumoniae (planktonic K. pneumoniae, positive cutoff 3-fold increase, read-out: AK-based Prestwick library screening result, K. pneumoniae (fold increase in extracellular AK activity)); 2.6 in assay [2] (planktonic A. baumannii, positive cutoff 3-fold increase, read-out: AK-based Prestwick library screening result, A. baumannii (fold increase in extracellular AK activity)); 0.8 in the assay with P. aeruginosa (planktonic P. aeruginosa, positive cutoff 3-fold increase, read-out: AK-based Prestwick library screening result, P. aeruginosa (fold increase in extracellular AK activity)); 1.4 in the assay with E. cloacae (planktonic E. cloacae, positive cutoff 3-fold increase, read-out: AK-based Prestwick library screening result, E. cloacae (fold increase in extracellular AK activity)). For the same compound, in the assay with E. coli (planktonic E. coli, positive cutoff 3-fold increase, read-out: AK-based Prestwick library screening result, E. coli (fold increase in extracellular AK activity)), the fold induction at 50 µM was 12.8.
With `CN1C(C(=O)Nc2ccccn2)=C(O)c2sccc2S1(=O)=O` [Tenoxicam], the fold induction at 50 µM was 1 in the assay on E. faecium (setting [10]); 1.2 in assay [1] (setting [11]); 0.9 with K. pneumoniae (setting [12]); 1 in assay [2] (setting [13]); 1.1 in the assay on P. aeruginosa (setting [14]); 1.6 in the assay on E. cloacae (setting [15]). Also, the fold induction at 50 µM in the assay on E. coli (setting [16]) came to 1.3.
Turning to `NCc1ccc(S(N)(=O)=O)cc1` [Mafenide hydrochloride], the fold induction at 50 µM with E. faecium (384-well format, cutoff for positive-scoring molecules 3-fold increase, read-out: AK-based Prestwick Library Screening Results, E. faecium (increase in extracellular AK activity)) turned out to be 1.2; in assay [1] (384-well format, cutoff for positive-scoring molecules 3-fold increase, read-out: AK-based Prestwick Library Screening Results, S. aureus (increase in extracellular AK activity)), 0.6; with K. pneumoniae (384-well format, cutoff for positive-scoring molecules 3-fold increase, read-out: AK-based Prestwick Library Screening Results, K. pneumoniae (increase in extracellular AK activity)), 0.5; in assay [2] (384-well format, cutoff for positive-scoring molecules 3-fold increase, read-out: AK-based Prestwick Library Screening Results, A. baumannii (increase in extracellular AK activity)), 0.5; in the assay with P. aeruginosa (384-well format, cutoff for positive-scoring molecules 3-fold increase, read-out: AK-based Prestwick Library Screening Results, P. aeruginosa (increase in extracellular AK activity)) it was 0.5; in the assay with E. cloacae (384-well format, cutoff for positive-scoring molecules 3-fold increase, read-out: AK-based Prestwick Library Screening Results, E. cloacae (increase in extracellular AK activity)), 0.6. For the same compound, the fold induction at 50 µM in the assay with E. coli (384-well format, cutoff for positive-scoring molecules 3-fold increase, read-out: AK-based Prestwick Library Screening Results, E. coli (increase in extracellular AK activity)) was determined as 0.6.
For the compound `Nc1nc(O)c2[nH]nnc2n1` [Azaguanine-8], in the assay on E. faecium (setting [17]), the “AK-based Prestwick Library Screening Results, E. faecium (increase in extracellular AK activity)” value was found to be 0.8. Besides, the “AK-based Prestwick Library Screening Results, S. aureus (increase in extracellular AK activity)” value in assay [1] (setting [17]) is reported as 0.6. Also, in the assay on K. pneumoniae (setting [17]), the “AK-based Prestwick Library Screening Results, K. pneumoniae (increase in extracellular AK activity)” value is 0.3. Besides, in assay [2] (setting [17]), the “AK-based Prestwick Library Screening Results, A. baumannii (increase in extracellular AK activity)” value came to 0.3. Moreover, in the assay with P. aeruginosa (setting [17]), the “AK-based Prestwick Library Screening Results, P. aeruginosa (increase in extracellular AK activity)” value is 0.3. The “AK-based Prestwick Library Screening Results, E. cloacae (increase in extracellular AK activity)” value in the assay with E. cloacae (setting [17]) worked out at 0.3. For the same compound, the “AK-based Prestwick Library Screening Results, E. coli (increase in extracellular AK activity)” value in the assay with E. coli (setting [17]) is 0.4.
Regarding `CCn1nc(C(=O)O)c(=O)c2cc3c(cc21)OCO3` [Cinoxacin], the fold induction at 50 µM with E. faecium (setting [3]) worked out at 1.1; in assay [1] (setting [4]), 1.3; in the assay on K. pneumoniae (setting [5]) it was 2.1; in assay [2] (setting [6]), 1.3; in the assay on P. aeruginosa (setting [7]), 1.2; in the assay on E. cloacae (setting [8]) it was 1.4. For the same compound, the fold induction at 50 µM with E. coli (setting [9]) came to 10.3.
For `CC(C)(CO)[C@@H](O)C(=O)NCCC(=O)O` [calcium salt monohydrate], the fold induction at 50 µM was 1.1 with E. faecium (setting [10]); 1.1 in assay [1] (setting [11]); 1 with K. pneumoniae (setting [12]); 1.1 in assay [2] (setting [13]); 1 with P. aeruginosa (setting [14]); 1.4 in the assay on E. cloacae (setting [15]). In the assay on E. coli (setting [16]), the fold induction at 50 µM was 1.1.
For the compound `Cc1onc(-c2c(Cl)cccc2Cl)c1C(=O)N[C@@H]1C(=O)N2[C@@H]1SC(C)(C)[C@@H]2C(=O)O` [Dicloxacillin sodium salt], the fold induction at 50 µM with E. faecium (setting [10]) was 1; in assay [1] (setting [11]), 7.1; with K. pneumoniae (setting [12]) it was 0.9; in assay [2] (setting [13]), 1.5; in the assay with P. aeruginosa (setting [14]), 1.4; in the assay on E. cloacae (setting [15]), 1.2. Moreover, the fold induction at 50 µM in the assay with E. coli (setting [16]) was determined as 1.2.
For the compound `CC(C)(C)NC[C@H](O)COc1ccccc1C1CCCC1` [Penbutolol sulfate], the fold induction at 50 µM in the assay with E. faecium (setting [3]) amounted to 0.8; in assay [1] (setting [4]) it was 0.4; in the assay on K. pneumoniae (setting [5]), 0.5; in assay [2] (setting [6]), 0.4; in the assay with P. aeruginosa (setting [7]), 0.5; with E. cloacae (setting [8]), 0.4. For the same compound, in the assay on E. coli (setting [9]), the fold induction at 50 µM was 0.5.
Regarding `CC(=O)OCC1=C(C(=O)O)N2C(=O)[C@@H](N)[C@H]2SC1` [Cephalosporanic acid, 7-amino], the “AK-based Prestwick Library Screening Results, E. faecium (increase in extracellular AK activity)” value with E. faecium (planktonic E. faecium, […]) was found to be 0.9. Besides, in assay [1] (planktonic S. aureus, […]), the “AK-based Prestwick Library Screening Results, S. aureus (increase in extracellular AK activity)” value is on record as 0.6. Moreover, the “AK-based Prestwick Library Screening Results, K. pneumoniae (increase in extracellular AK activity)” value in the assay with K. pneumoniae (planktonic K. pneumoniae, […]) was found to be 0.7. For the same compound, in assay [2] (planktonic A. baumannii, […]), the “AK-based Prestwick Library Screening Results, A. baumannii (increase in extracellular AK activity)” value is listed as 0.8. In the assay with P. aeruginosa (planktonic P. aeruginosa, […]), the “AK-based Prestwick Library Screening Results, P. aeruginosa (increase in extracellular AK activity)” value stood at 0.8. Besides, the “AK-based Prestwick Library Screening Results, E. cloacae (increase in extracellular AK activity)” value with E. cloacae (planktonic E. cloacae, […]) is on record as 0.8. In addition, the “AK-based Prestwick Library Screening Results, E. coli (increase in extracellular AK activity)” value in the assay with E. coli (planktonic E. coli, […]) was found to be 0.9.
`O=C(N/N=C/c1ccc([N+](=O)[O-])o1)c1ccc(O)cc1` [Nifuroxazide]: the fold induction at 50 µM with E. faecium (setting [10]) stood at 1; in assay [1] (setting [11]), 0.7; with K. pneumoniae (setting [12]), 1.8; in assay [2] (setting [13]), 1.1; in the assay on P. aeruginosa (setting [14]), 1.2; in the assay with E. cloacae (setting [15]), 1.5. Moreover, in the assay on E. coli (setting [16]), the fold induction at 50 µM was found to be 1.2.
Regarding `Cc1cc(C)nc(NS(=O)(=O)c2ccc(N)cc2)n1` [Sulfamethazine sodium salt], the fold induction at 50 µM worked out at 1 with E. faecium (setting [3]); 1.4 in assay [1] (setting [4]); 1 with K. pneumoniae (setting [5]); 1.6 in assay [2] (setting [6]); 1.1 in the assay on P. aeruginosa (setting [7]); 1.4 in the assay with E. cloacae (setting [8]). The fold induction at 50 µM with E. coli (setting [9]) amounted to 1.
